Where two headings read alike, the source gives them in different places.
Assays:
HCT116-WT = assay: Cell proliferation inhibition (CellTiter Glo), HCT116-WT cells; format: cell-based; conditions: cultured 6 days with compound
Protocol: (§1) Test Example 2: Test of cell proliferation inhibition activity of the compounds
(§2) HCT116-WT (ATCC, CCL-247) and HCT116 MTAP KO (Cobioer Nanjing, CBP75002) cells were seeded into white low-transparency 96-well sterile cell culture plates at a density of 250 cells per well, respectively. The culture medium was McCoy's 5A Medium + 10% FBS. The plates were incubated overnight at 37°C with 5% CO2. The cells were treated with compounds gradiently with an initial concentration of 10000 nM, 4-fold dilution, and 8 concentration points. The last two columns were control wells with only DMSO added. The treated cells were continued to be cultured for 6 days. On the seventh day, 50 µL of CellTiter Glo® reagent was added to each well. After reacting on a shaker at room temperature for 10 minutes, the chemiluminescence signal in the plate was detected using the chemiluminescence detection method on a BIOTEK H1 multi-mode plate reader. […] Table 2: IC50 values of compounds for HCT116 MTAP KO/WT cell growth inhibition

PRMT5-MTA [1] = target: T1, PRMT5-MTA (Homo sapiens, UniProt O14744); conditions: PRMT5+MTA enzyme activity inhibition; PRMT5/MET50 protein 1 nM, 5'-deoxy-5'-adenosine 1 µM, SAM 2.5 µM, Histone H4 substrate 5 nM
T1 sequence (O14744 whole entry): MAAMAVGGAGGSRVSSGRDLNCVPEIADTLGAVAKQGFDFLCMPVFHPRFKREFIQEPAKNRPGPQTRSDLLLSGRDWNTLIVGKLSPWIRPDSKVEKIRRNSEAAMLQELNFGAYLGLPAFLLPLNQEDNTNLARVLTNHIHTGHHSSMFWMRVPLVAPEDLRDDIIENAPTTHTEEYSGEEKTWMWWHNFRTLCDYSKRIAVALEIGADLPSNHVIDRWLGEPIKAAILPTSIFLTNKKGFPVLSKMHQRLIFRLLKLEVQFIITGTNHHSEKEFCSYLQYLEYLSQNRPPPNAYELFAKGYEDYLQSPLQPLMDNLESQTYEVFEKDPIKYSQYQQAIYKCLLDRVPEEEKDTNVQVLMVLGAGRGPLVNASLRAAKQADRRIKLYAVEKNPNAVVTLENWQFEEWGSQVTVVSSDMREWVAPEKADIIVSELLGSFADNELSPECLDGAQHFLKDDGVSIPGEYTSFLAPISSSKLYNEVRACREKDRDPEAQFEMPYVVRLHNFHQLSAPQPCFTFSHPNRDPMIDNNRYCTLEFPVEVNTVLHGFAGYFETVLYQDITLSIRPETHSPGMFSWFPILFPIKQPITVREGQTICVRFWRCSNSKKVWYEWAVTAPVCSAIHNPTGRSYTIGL
T1 sequence (Q9BQA1 whole entry partner): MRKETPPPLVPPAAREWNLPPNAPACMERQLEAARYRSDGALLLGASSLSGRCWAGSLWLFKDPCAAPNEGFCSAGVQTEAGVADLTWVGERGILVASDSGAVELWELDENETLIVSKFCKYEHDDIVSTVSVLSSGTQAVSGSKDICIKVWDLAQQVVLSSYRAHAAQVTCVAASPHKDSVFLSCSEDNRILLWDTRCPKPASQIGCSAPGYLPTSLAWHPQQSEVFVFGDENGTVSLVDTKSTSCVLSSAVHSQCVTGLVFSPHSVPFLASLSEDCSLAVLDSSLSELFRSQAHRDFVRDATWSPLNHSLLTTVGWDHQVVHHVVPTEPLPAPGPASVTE
Protocol: (§3) The enzymatic inhibition activity of the compounds against PRMT5-MTA was detected using the AlphaScreen method. A 1× methyltransferase assay buffer IV (Signalchem) was prepared as a dilution solution for each component of the enzymatic reaction. […] The test compounds were added to all wells except the control wells in a 3-fold dilution series of 10 concentration points starting from 1000 nM using a Tecan D300e. After centrifugation at 1000 rpm for 1 minute in a centrifuge, the plate was incubated at 23°C for 15 minutes. Histone H4 substrate at a final concentration of 5 nM was added to the plate at 4 µL per well. After centrifugation at 1000 rpm for 1 minute in a centrifuge, the plate was reacted in an incubator at 23°C for 45 minutes. Anti-Histone H4 (symmetric dimethyl R3) antibody (Abcam) was pre-incubated with 50 µg/mL AlphaScreen Protein A Acceptor beads (PerkinElmer) at room temperature for 10 minutes, and then added to the plate in a volume of 10 µL per well, followed by reaction at room temperature for 1 hour. 10 µL of 50 µg/mL AlphaScreen Streptavidin Donor beads (PerkinElmer) were added to each well, and reacted at room temperature for 1 hour. The signal values in the plate were detected using the Alpha method on an Envision multi-mode plate reader. The IC50 values of the compounds for PRMT5/MET50 enzyme activity inhibition were calculated in Xlfit 5.0 software.

HCT116 MTAP KO = assay: Cell proliferation inhibition (CellTiter Glo), HCT116 MTAP KO cells; format: cell-based; conditions: cultured 6 days with compound
Protocol: as §1, §2

PRMT5-MTA [2] = target: T1, PRMT5-MTA; assay: biochemical; conditions: IC50 (nM), PRMT5+MTA enzyme activity inhibition; PRMT5/MET50 protein 1 nM, 5'-deoxy-5'-adenosine 1 µM, SAM 2.5 µM, Histone H4 substrate 5 nM
Protocol: as §3

| Compound | IC50 (HCT116-WT) [nM] | IC50 (PRMT5-MTA [1]) [nM] | IC50 (HCT116 MTAP KO) [nM] | IC50 (HCT116-WT; 144 h) [nM] | IC50 (PRMT5-MTA [2]) [nM] | IC50 (HCT116 MTAP KO; Homo sapiens, HCT-116, 144 h) [nM] |
| --- | --- | --- | --- | --- | --- | --- |
| 6-((isobutyrylamido(methylamino)methylene)amino)-N-(1-(pyrimidin-2-yl)ethyl)-N-((5 -(trifluoromethyl)pyridin-2-yl)methyl)nicotinamide [Compound 29] | 3730 | 8.2 | 590 | – | – | – |
| CNC(N)=Nc1ccc(C(=O)N(Cc2ccc(C)nc2)[C@H](C)c2ccccc2F)cn1 [Compound 109] | – | – | – | 7720 | 5.8 | 658 |
| CNC(N)=Nc1ccc(C(=O)N(Cc2cccc(F)c2)[C@H](C)c2ccccc2F)cn1 [Compound 110] | – | – | – | 3660 | 6.2 | 508 |
| CNC(N)=Nc1ccc(C(=O)N(Cc2ccccn2)[C@H](C)c2ccccc2F)cn1 [Compound 111] | – | – | – | 6450 | 3.7 | 496 |
| CNC(N)=Nc1ccc(C(=O)N(Cc2ccc(F)cc2)[C@H](C)c2ccccc2F)cn1 [Compound 112] | – | – | – | 2340 | 6.1 | 304 |
| CNC(N)=Nc1ccc(C(=O)N(Cc2ccc(C(F)(F)F)cn2)N(C)c2ncccn2)cn1 [Compound 113] | – | – | – | 2650 | 3.2 | 49 |
| CN/C(N)=N\c1ccc(C(=O)N(Cc2ccc(C(F)(F)F)cn2)[C@H]2CCCc3ccccc32)cn1 [Compound 114, (S,Z)-6-((amino(methylamino)methylene)amino)-N-(1,2,3,4-tetrahydronaphthalen-1-yl) -N-((5-(trifluoromethyl)pyridin-2-yl)methyl)nicotinamide] | – | – | – | 2970 | 3.2 | 612 |
| CNC(N)=Nc1ccc(C(=O)N(Cc2ccc(C(F)(F)F)cn2)C(C)c2ccccc2C(F)(F)F)cn1 (stereo not drawn) [Compound 115] | – | – | – | 3180 | 0.9 | 942 |
| NC(=Nc1ccc(C(=O)N(Cc2ccc(C(F)(F)F)cn2)C2CCCc3ccccc32)cn1)NO (stereo not drawn) [Compound 116] | – | – | – | 307 | 3.4 | 63 |
| NC(=Nc1ccc(C(=O)N(Cc2ccc(C(F)(F)F)cn2)C2CCCc3cccnc32)cn1)NO (stereo not drawn) [Compound 117] | – | – | – | 115 | 5.7 | 21 |
| CN/C(N)=N\c1ccc(C(=O)N(Cc2ccc(C(F)(F)F)cn2)C(C)c2ccc(F)cc2)cn1 (stereo not drawn) [Compound 118, (Z)-6-((amino(methylamino)methylene)amino)-N-(1-(4-fluorophenyl)ethyl)-N-((5-(trifluoromethyl)pyridin-2-yl)methyl)nicotinamide] | – | – | – | 2700 | 1.5 | 454 |
| CNC(N)=Nc1ccc(C(=O)N(Cc2ccc(-c3cnn(C)c3)cn2)[C@H](C)c2ccccc2F)cn1 [Compound 129] | – | – | – | 2520 | 5.4 | 233 |
| CN/C(N)=N\c1ccc(C(=O)N(Cc2ccc(-c3ccc(N4CCN(C)CC4)nc3)cn2)[C@H](C)c2ccccc2F)cn1 [Compound 130, (R,Z)-6-((amino(methylamino)methylene)amino)-N-(1-(2-fluorophenyl)ethyl)-N-((6'-(4-methylpiperazin-1-yl)-[3,3'-bipyridin]-6-yl)methyl)nicotinamide] | – | – | – | 1570 | 9.7 | 329 |
| CNC(N)=Nc1ccc(C(=O)N(Cc2ccc(C(F)(F)F)cn2)C2CCCc3cccc(F)c32)cn1 (stereo not drawn) [compound 93] | – | – | – | 504 | 7.1 | 33 |
| CNC(N)=Nc1ccc(C(=O)N(Cc2ccc(C(F)(F)F)cn2)C(C)c2cccc(F)c2)cn1 (stereo not drawn) [compound 119] | – | – | – | 2790 | 1.3 | 398 |
